Data from patent publication US11970448B2, “Monomers capable of dimerizing in an aqueous solution, and methods of using same” (CORNELL UNIVERSITY, priority 2011, dated 2024).
pIC50: −log10 of the molar value. Where two headings read alike, the source gives them in different places.

Target: T1, recominbant human tryptase, beta, from lung (Homo sapiens, UniProt P20231)
T1 construct: purchased Promega or Enzo Life Sciences G5631 or BML-SE418
Assay: Inhibition of tryptase activity by monomers and multimers (Boc-Gln-Ala-Arg-AMC fluorescence)
Assay type: biochemical
Settings: monomers against tryptase
Method in brief: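 Recombinant human lung β-tryptase (1 nM final; stock with heparin sulfate and 1 M NaCl) preincubated with test substance, then 200 μM Boc-Gln-Ala-Arg-AMC added in 50 mM HEPES, 150 mM NaCl, 100 μM EDTA, 0.02% Tween-20, pH 7.4. AMC fluorescence (ex 367/em 468 nm) read every 30 s for 15–30 min; IC50 from Vmax concentration-response curves.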

[1] = Table 5, read-out: Monomer IC50 range

T1 sequence (P20231 31-275): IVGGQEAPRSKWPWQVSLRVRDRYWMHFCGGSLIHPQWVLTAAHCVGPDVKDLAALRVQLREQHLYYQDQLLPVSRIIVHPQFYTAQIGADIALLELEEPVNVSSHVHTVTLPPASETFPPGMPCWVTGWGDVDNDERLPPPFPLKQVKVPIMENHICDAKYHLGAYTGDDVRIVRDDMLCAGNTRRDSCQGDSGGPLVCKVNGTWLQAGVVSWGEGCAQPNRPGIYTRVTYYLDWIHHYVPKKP

Compound | pIC50 [1] | pIC50 (read-out: IC50 range group of additional monomers (boronic acid, benzooxaborole, ligands))
NCc1cccc(C2CCN(C(=O)/C=C\c3ccc(O)c(O)c3)CC2)c1 [T24cis, (Z)-1-(4-(3-(aminomethyl)phenyl)piperidin-1-yl)-3-(3,4-dihydroxyphenyl)prop-2-en-1-one] | 5.00 to 6.00 | 5.00 to 6.00
NCc1cccc(C2CCN(C(=O)c3cccc4sc(Br)cc34)CC2)c1 [T37A, (4-(3-(aminomethyl)phenyl)piperidin-1-yl)(2-bromobenzo[b]thiophen-4-yl)methanone] | 5.00 to 6.00 | 
